According to article PMC8151276, “An Integrated Approach toward NanoBRET Tracers for Analysis of GPCR Ligand Engagement” (Molecules, 2021):

Molecular target: T1, ADCYAP1R1 (Homo sapiens, UniProt P41586)
T1 construct: purchased Promega (in-house HiBiT-GPCR construct library, NanoBRET)
T1 sequence (P41586 21-468): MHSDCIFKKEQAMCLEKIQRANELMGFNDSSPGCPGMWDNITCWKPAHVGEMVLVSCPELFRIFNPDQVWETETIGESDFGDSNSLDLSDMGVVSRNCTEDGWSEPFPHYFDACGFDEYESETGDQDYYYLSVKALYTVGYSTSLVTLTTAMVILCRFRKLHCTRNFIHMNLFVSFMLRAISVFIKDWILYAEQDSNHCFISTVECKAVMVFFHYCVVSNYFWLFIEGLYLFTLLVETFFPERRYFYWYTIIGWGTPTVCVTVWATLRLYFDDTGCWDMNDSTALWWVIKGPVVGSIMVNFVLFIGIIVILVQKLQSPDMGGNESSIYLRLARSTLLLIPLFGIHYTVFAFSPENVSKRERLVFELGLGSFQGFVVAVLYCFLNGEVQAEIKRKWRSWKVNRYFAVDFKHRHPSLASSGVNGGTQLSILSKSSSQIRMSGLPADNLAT
Test: NanoBRET screen HiBiT-ADCYAP1R1 in HEK293
Type: binding
Procedure: Each tracer candidate was screened across the entire library of HiBiT-GPCR constructs using NanoBRET as the detection modality. As depicted in Figure 4A, the specificity of interactions was evaluated through decrease in BRET due to competitive displacement of a bound tracer by excess parental compound. Each tracer was analyzed for binding to each HiBiT-GPCR fusion in the absence and in the presence of competing parental compound. Briefly, HEK293 cells were transfected with HiBiT-GPCR constructs diluted into promoterless DNA to reduce expression and maximize translocation to the cell surface. Each tracer candidate was then screened at concentrations of 1 μM and 0.1 μM across cells expressing these fusions. Cells were treated for 1.5 h with tracer either alone or in the presence of 20 μM competing parental compound (i.e., control). BRET was measured upon addition of purified LgBiT and subsequent complementation with HiBiT genetically fused to a GPCR. The specificity of interactions was assessed through a decrease in BRET signal due to competitive displacement of the bound tracer. To further gauge the robustness of these interactions, the fold response over the control (i.e., BRETtracer/BRETcontrol) was calculated. We chose a 1.5-fold response, which translates to ≥7-fold signal over noise as the minimal threshold required to score an interaction as positive.
HiBiT-GPCR DNA constructs were diluted in 10 mM Tris pH 8 to a final concentration of 0.01 μg/μL, arrayed in 96-well plates and stored at −20 °C. For transfection, HEK293 cells were suspended in Opti-MEM (without phenol red) supplemented with 2% fetal bovine serum (Seradigm) and 100 units/mL penicillin–streptomycin (Gibco) at a final concentration of 220,000 cells/mL and dispensed into white 96-well plates at 90 μL/well. Subsequent transfections and screens were carried using an Agilent Bravo Automated Liquid Handling Platform. First, the 96-well HiBiT DNA arrays were diluted 25-fold in Opti-MEM (without serum or phenol red) to a final concentration of 0.0004 μg/μL and 20 μL of the diluted DNAs were transferred into new 96-well plates. Next, promoterless carrier DNA (1 μg/μL) was diluted 25-fold (0.04 μg/μL) and then dispensed into the diluted arrays at 20 μL/well. Following brief mixing, Viafect transfection reagent (Promega) diluted 16-fold into Opti-MEM was dispensed into the plates at 40 μL/well. After mixing by pipetting, plates were incubated for 10 min on the pipetting station deck. The DNA-transfection reagent complexes were then added to plates containing cells. To facilitate the screen, 10 μL of DNA-transfection reagent complexes were added in duplicates to the top 4 and bottom 4 rows, resulting in two identical 48-well arrays per plate. Plates with transfected cells were incubated for 18–20 h at 37 °C/5% CO2. A screen of each tracer across the entire library using two different concentrations requires duplicate plates of transfected cells. Depending on the number of tracers being screened, transfections can be scaled up using the same ratios. The next day, for each tracer, four 20× screening solutions in tracer dilution buffer (Promega) were prepared: two duplicates at final concentration of 20 μM and two duplicates at a final concentration of 2 μM. […] The four resulting solutions were diluted 4-fold in Opti-MEM without serum or phenol red to generate 5× solutions (5 µM and 0.5 µM tracer +/− 100 μM competing compound). To screen the library, a BioTek MultiFlo FX liquid dispenser was used to dispense 22.5 µL of tracer solution to the top 4 rows and 22.5 µL tracer + competing compound solution to the 4 bottom rows. Plates were briefly mixed on an orbital shaker and incubated for 1.5 h at room temperature. […] Plates were briefly mixed on an orbital shaker and incubated for 15 min to allow complementation.

SMILES | NanoBRET Fold Response (ADCYAP1R1, tracer 0.1μM) | NanoBRET Fold Response (ADCYAP1R1, tracer 1μM) | also measured
Cc1nc2n(c(=O)c1CCN1CCC(c3noc4cc(F)ccc34)CC1)CCCC2OC(=O)NCCOCCOCCOCCOCCNC(=O)CCc1ccc2n1[B-](F)(F)[N+]1=C(c3ccc[nH]3)C=CC1=C2 (centres unmarked) [Risperidone-2-NB590] | 0.99 | 1.02 | –
CCOC(=O)c1cc(C#N)c(N2CCC(C(=O)NS(=O)(=O)Cc3ccccc3/C=C/C(=O)NCCNC(=O)CCc3ccc4n3[B-](F)(F)[N+]3=C(c5ccc[nH]5)C=CC3=C4)CC2)nc1C [AZD1283-1-NB590] | – | – | NanoBRET Fold Response (ADCYAP1R1, 0.1μM): 0.93; NanoBRET Fold Response (ADCYAP1R1, 1μM): 0.96
Cc1cc2c(s1)Nc1ccccc1N=C2N1CCN(CCCNC(=O)CCOCCOCCOCCOCCNC(=O)CCc2ccc3n2[B-](F)(F)[N+]2=C(c4ccc[nH]4)C=CC2=C3)CC1 [Olanzapine-a-2-NB590] | 1.02 | 1.01 | –
COc1ccccc1N1CCN(CCCCN2C(=O)c3ccc(CNC(=O)CCOCCNC(=O)c4ccc(CNC(=O)CCc5ccc6n5[B-](F)(F)[N+]5=C(c7ccc[nH]7)C=CC5=C6)cc4)cc3C2=O)CC1 [NAN-190-3-NB590] | 1.25 | 1.00 | –
CC(C)N(CC[C@H](c1ccccc1)c1cc(CCNC(=O)CCOCCOCCOCCOCCNC(=O)CCc2ccc3n2[B-](F)(F)[N+]2=C(c4ccc[nH]4)C=CC2=C3)ccc1O)C(C)C [Tolterodine-2-NB590] | 0.68 | 0.93 | –
CN(C)CCC=C1c2ccccc2CCc2ccc(C(=O)NCCNC(=O)CCOCCOCCOCCOCCNC(=O)CCc3ccc4n3[B-](F)(F)[N+]3=C(c5ccc[nH]5)C=CC3=C4)cc21 [Amitriptyline-b-2-NB590] | 0.99 | 0.99 | –
O=C(CCOCCOCCOCCOCCNC(=O)CCc1ccc2n1[B-](F)(F)[N+]1=C(c3ccc[nH]3)C=CC1=C2)NCCCN1CCN(C2=Nc3ccccc3Oc3ccc(Cl)cc32)CC1 [Loxapine-a-2-NB590] | 1.03 | 1.20 | –
O=C(CCc1ccc2n1[B-](F)(F)[N+]1=C(c3ccc[nH]3)C=CC1=C2)NCCOCCOCCNC(=O)OCCOCCN1CCN(C2=Nc3ccccc3Sc3ccccc32)CC1 [Quetiapine-a-2-NB590] | 1.03 | 1.11 | –
COc1ccccc1N1CCN(CCCCN2C(=O)c3ccc(CNC(=O)CCOCCOCCOCCOCCNC(=O)CCc4ccc5n4[B-](F)(F)[N+]4=C(c6ccc[nH]6)C=CC4=C5)cc3C2=O)CC1 [NAN-190-2-NB590] | 1.08 | 1.04 | –
CN1CCN(C2=Nc3cc(Cl)ccc3N(CC(=O)NCCOCCOCCOCCOCCNC(=O)CCc3ccc4n3[B-](F)(F)[N+]3=C(c5ccc[nH]5)C=CC3=C4)c3ccccc32)CC1 [Clozapine-c-2-NB590] | – | – | NanoBRET Fold Response (ADCYAP1R1, 0.1μM tracer): 0.97; NanoBRET Fold Response (ADCYAP1R1, 1μM tracer): 1.07
COc1ccc2[nH]c(-c3ccc(CNC(=O)CCOCCOCCOCCOCCNC(=O)CCc4ccc5n4[B-](F)(F)[N+]4=C(c6ccc[nH]6)C=CC4=C5)cc3)c(CCNC(C)=O)c2n1 [AzomelatoninICO9-2-NB590] | – | – | NanoBRET Fold Response (0.1μM tracer): 1.08; NanoBRET Fold Response (1μM tracer): 0.91
O=C(CCOCCOCCOCCOCCNC(=O)CCc1ccc2n1[B-](F)(F)[N+]1=C(c3ccc[nH]3)C=CC1=C2)NCCCN1CCN(C2=Nc3cc(Cl)ccc3Nc3ccccc32)CC1 [Clozapine-a-2-NB590] | – | – | NanoBRET Fold Response (ADCYAP1R1, 0.1μM tracer): 1.00; NanoBRET Fold Response (ADCYAP1R1, 1μM tracer): 1.06
CCCn1c(=O)c2[nH]c(-c3ccc(OCC(=O)NCCNC(=O)CCOCCNC(=O)c4ccc(CNC(=O)CCc5ccc6n5[B-](F)(F)[N+]5=C(c7ccc[nH]7)C=CC5=C6)cc4)cc3)nc2n(CCC)c1=O [XAC-3-NB590] | 0.98 | 0.97 | –
O=C(CCc1ccc2n1[B-](F)(F)[N+]1=C(c3ccc[nH]3)C=CC1=C2)NCc1ccc(C(=O)NCCOCCOCCNCC(O)COc2cccc3ccccc23)cc1 (centres unmarked) [Propranolol-3-NB590] | – | – | NanoBRET Fold Response (ADCYAP1R1, 0.1μM): 1.00; NanoBRET Fold Response (ADCYAP1R1, 1μM): 0.97
O=C(CCc1ccc2n1[B-](F)(F)[N+]1=C(c3ccc[nH]3)C=CC1=C2)NCc1ccc(C(=O)NCCOCCC(=O)N[C@@H]2CC[C@@]3(O)[C@H]4Cc5ccc(O)c6c5[C@@]3(CCN4CC3CC3)[C@H]2O6)cc1 [Naltrexone-3-NB590] | 0.88 | 0.98 | –
N#CN=C(NCCCOc1cccc(CN2CCCCC2)c1)NCCNC(=O)CCOCCOCCOCCOCCNC(=O)CCc1ccc2n1[B-](F)(F)[N+]1=C(c3ccc[nH]3)C=CC1=C2 [Aminopotentidine-2-NB590] | 1.00 | 1.01 | –
COc1ccc2c(n1)c(CCNC(C)=O)cn2CCNC(=O)CCc1ccc2n1[B-](F)(F)[N+]1=C(c3ccc[nH]3)C=CC1=C2 [Azamelatonin-1-NB590] | – | – | NanoBRET Fold Response (0.1μM tracer): 0.76; NanoBRET Fold Response (1μM tracer): 0.54
CC(C)N(CC[C@H](c1ccccc1)c1cc(CCNC(=O)c2ccc(CNC(=O)CCc3ccc4n3[B-](F)(F)[N+]3=C(c5ccc[nH]5)C=CC3=C4)cc2)ccc1O)C(C)C [Tolterodine-BZ-NB590] | 1.04 | 1.00 | –
CN1CCN(C2=Nc3cc(Cl)ccc3Nc3ccc(CNC(=O)CCOCCOCCOCCOCCNC(=O)CCc4ccc5n4[B-](F)(F)[N+]4=C(c6ccc[nH]6)C=CC4=C5)cc32)CC1 [Clozapine-b-2-NB590] | – | – | NanoBRET Fold Response (ADCYAP1R1, 0.1μM tracer): 1.04; NanoBRET Fold Response (ADCYAP1R1, 1μM tracer): 1.09
